Measurements reported in patent publication US10457709B2, “Antimicrobial peptides, their variants and uses” (priority 2015, dated 2019).
Converted amounts (≈) assume the structure as drawn. Ends that are not written are not given here.

How the values were obtained:
Test in all cases: microbe, parasite or virus in culture
Assay type in all cases: cell-based
[1] = system: Pseudomonas aeruginosa (ATCC 27853)
Protocol: (§1) Minimum inhibition concentrations (MICs) were determined against Escherichia coli (ATCC 25922), Staphylococcus aureus (ATCC 25923), Klebsiella pneumoniae (ATCC 10031) and Pseudomonas aeruginosa (ATCC 27853). Also clinical strains of E. coli, K. pneumoniae, E. cloacae, P. aeruginosa, Serratia marcescens, Proteus mirabilis, S. pneumoniae, Acinetobacter baumannii, A. johnsonii and S. aureus were used for MICs assays. Additionally, clinical strains of yeast including Candida albicans, C. glabrata, C. parapsilosis and C. quillermondiae were used. The susceptibility of these microorganisms to Chain peptides were determined using micro broth dilution assay. Colonies of the respective microorganism from Muller Hinton (MH) agar plates incubated overnight were suspended in MH broth media and final concentration of microorganism was adjusted to 5.0×10^5 cfu/ml. An aliquot of 10 μl of each Chain peptide, or gentamicin, tetracycline as reference antibiotics were added in differing concentrations along with 90 μl of bacterial suspension to 96 well polypropylene plates and incubated at 37° C. for 20 to 24 hours. Concentrations of Chain peptides and reference antibiotics ranged from 0.125 to 128 μg/ml and the MICs were recorded as the lowest concentration with no visual growth of bacteria. Similarly, antifungal MICs were tested in Potato dextrose broth.

[2] = system: Escherichia coli (ATCC 25922)
Protocol: as §1

[3] = system: Staphylococcus aureus (ATCC 25923)
Protocol: as §1

[4] = system: Klebsiella pneumoniae (ATCC 10031)
Protocol: as §1

Row | Compound | MIC ([1]; Pseudomonas aeruginosa, ATCC27853, read-out: Minimum inhibitory concentration, Pseudomonas aeruginosa (ATCC 27853)) [µg/mL] | MIC ([2]; Escherichia coli, ATCC25922, read-out: Minimum inhibitory concentration, Escherichia coli (ATCC 25922)) [µg/mL] | MIC ([3]; Staphylococcus aureus, ATCC25923, read-out: Minimum inhibitory concentration, Staphylococcus aureus (ATCC 25923)) [µg/mL] | MIC ([4]; Klebsiella pneumoniae, ATCC10031, read-out: Minimum inhibitory concentration, Klebsiella pneumoniae (ATCC 10031)) [µg/mL] | Minimum inhibitory concentration, Pseudomonas aeruginosa (ATCC 27853) [1] [µg/mL] | Minimum inhibitory concentration, Escherichia coli (ATCC 25922) [2] [µg/mL] | Minimum inhibitory concentration, Staphylococcus aureus (ATCC 25923) [3] [µg/mL] | Minimum inhibitory concentration, Klebsiella pneumoniae (ATCC 10031) [4] [µg/mL]
1 | CN(C)[C@@H]1C(O)=C(C(N)=O)C(=O)[C@@]2(O)C(O)=C3C(=O)c4c(O)cccc4[C@@](C)(O)[C@H]3C[C@@H]12 [Tetracycline, reference compound] | 32 (≈ 72 µM) | 8 (≈ 18 µM) | 2 (≈ 4.5 µM) | 2 (≈ 4.5 µM) |  |  |  | 
2 | DCWSAMIRLHAKYNQV [Chain100] |  |  |  |  | >128 | >128 | >128 | >128
3 | IIKRFRLFKKL [Chain301] |  |  |  |  | 64 | 64 | >128 | >128
4 | ILKRWWLFKKL [Chain302] |  |  |  |  | 16 | >128 | 128 | >128
5 | IWKRFRLFKKR [Chain303] |  |  |  |  | >128 | 64 | >128 | >128
6 | IWKRFRLFKKW [Chain304] |  |  |  |  | 8 | 16 | 32 | 64
7 | KIRLHRKRLRK [Chain101] |  |  |  |  | >128 | >128 | >128 | >128
8 | KKRLHRKRLRK [Chain102] |  |  |  |  | >128 | >128 | >128 | >128
9 | KLKKFKLFKKR [Chain312] |  |  |  |  | >128 | >128 | >128 | >128
10 | KLKWFWLFKKR [Chain311] |  |  |  |  | 8 | 16 | 32 | 32
11 | KLRLHAKRLRK [Chain103] |  |  |  |  | >128 | >128 | >128 | >128
12 | KRIVRWRKLKRK [Chain207] |  |  |  |  | >128 | >128 | >128 | >128
13 | KRIVRWRTRKR [Chain205] |  |  |  |  | >128 | 64 | >128 | >128
14 | KRIVRWRWRKR [Chain206] |  |  |  |  | >128 | 16 | >128 | >128
15 | RKIVKKRTFKR [Chain202] |  |  |  |  | 1 | >128 | >128 | >128
16 | RLKRFRLFRKRK [Chain313] |  |  |  |  | 64 | 32 | >128 | >128
17 | RLKWFWLRKLK [Chain305] |  |  |  |  | 16 | 128 | 64 | 64
18 | RRIVKLRWFKR [Chain203] |  |  |  |  | >128 | 32 | >128 | >128
19 | WIRLHWKRLRK [Chain106] |  |  |  |  | 64 | >128 | >128 | >128
20 | WRILRWRKLKR [Chain208] |  |  |  |  | 32 | 32 | >128 | >128
21 | WRIVQWRKLKR [Chain210] |  |  |  |  | >128 | >128 | >128 | >128
22 | WRIVRWRKLKR [Chain209] |  |  |  |  | >128 | 64 | >128 | >128
23 | WRKWFWLFKKR [Chain309] |  |  |  |  | 8 | 32 | 32 | 64
24 | WWRLHAKKKLW [Chain107] |  |  |  |  | >128 | 64 | >128 | >128
25 | WWRLHAKRKLW [Chain108] |  |  |  |  | >128 | >128 | >128 | >128
26 | YDKGFGLFKKM [Chain300] |  |  |  |  | >128 | >128 | >128 | >128
